Source: US20250134906A1 (Woolsey Pharmaceuticals, Inc., priority 2022, published 2025)
Structures can show the parent of a compound that is named as a salt.

Experiments:
[1] = Solubility and stability of unbuffered aqueous fasudil solutions stored at 60° C. for 42 days; assay type: physicochemical; conditions: 16-20 mg/ml
Method: Samples were stored at 60° C. for 42 days.

[2] = Stability of aqueous fasudil in 0.05M citrate buffer with or without EDTA, 60° C. for 36 days; assay type: physicochemical
Method: Samples were stored at 60° C. for 36 days.

O=S(=O)(c1cccc2cnccc12)N1CCCNCC1 [Fasudil, hexahydro-1-(5-isoquinolinesulfonyl)-1H-1,4-diazepine monohydrochloride hemihydrate]
changes in fasudil concentration or pH [1]: stable in the range of pH 4 to pH 6
changes in pH or fasudil concentration [2]: compatible with EDTA in citrate buffer
